From ChEMBL document CHEMBL3414527, “Engineering potent and selective analogues of GpTx-1, a tarantula venom peptide antagonist of the Na(V)1.7 sodium channel” (J Med Chem, 2015)
Bridge positions count the residues as written; N and C are the ends. Peptide text beside a SMILES is read from it.

Target: Sodium channel protein type 9 subunit alpha (Homo sapiens, UniProt Q15858)
Experiment: Inhibition of human NaV1.7 at -140 mV holding potential by whole-cell patch clamp assay

Sequence of Sodium channel protein type 9 subunit alpha (Q15858 whole entry): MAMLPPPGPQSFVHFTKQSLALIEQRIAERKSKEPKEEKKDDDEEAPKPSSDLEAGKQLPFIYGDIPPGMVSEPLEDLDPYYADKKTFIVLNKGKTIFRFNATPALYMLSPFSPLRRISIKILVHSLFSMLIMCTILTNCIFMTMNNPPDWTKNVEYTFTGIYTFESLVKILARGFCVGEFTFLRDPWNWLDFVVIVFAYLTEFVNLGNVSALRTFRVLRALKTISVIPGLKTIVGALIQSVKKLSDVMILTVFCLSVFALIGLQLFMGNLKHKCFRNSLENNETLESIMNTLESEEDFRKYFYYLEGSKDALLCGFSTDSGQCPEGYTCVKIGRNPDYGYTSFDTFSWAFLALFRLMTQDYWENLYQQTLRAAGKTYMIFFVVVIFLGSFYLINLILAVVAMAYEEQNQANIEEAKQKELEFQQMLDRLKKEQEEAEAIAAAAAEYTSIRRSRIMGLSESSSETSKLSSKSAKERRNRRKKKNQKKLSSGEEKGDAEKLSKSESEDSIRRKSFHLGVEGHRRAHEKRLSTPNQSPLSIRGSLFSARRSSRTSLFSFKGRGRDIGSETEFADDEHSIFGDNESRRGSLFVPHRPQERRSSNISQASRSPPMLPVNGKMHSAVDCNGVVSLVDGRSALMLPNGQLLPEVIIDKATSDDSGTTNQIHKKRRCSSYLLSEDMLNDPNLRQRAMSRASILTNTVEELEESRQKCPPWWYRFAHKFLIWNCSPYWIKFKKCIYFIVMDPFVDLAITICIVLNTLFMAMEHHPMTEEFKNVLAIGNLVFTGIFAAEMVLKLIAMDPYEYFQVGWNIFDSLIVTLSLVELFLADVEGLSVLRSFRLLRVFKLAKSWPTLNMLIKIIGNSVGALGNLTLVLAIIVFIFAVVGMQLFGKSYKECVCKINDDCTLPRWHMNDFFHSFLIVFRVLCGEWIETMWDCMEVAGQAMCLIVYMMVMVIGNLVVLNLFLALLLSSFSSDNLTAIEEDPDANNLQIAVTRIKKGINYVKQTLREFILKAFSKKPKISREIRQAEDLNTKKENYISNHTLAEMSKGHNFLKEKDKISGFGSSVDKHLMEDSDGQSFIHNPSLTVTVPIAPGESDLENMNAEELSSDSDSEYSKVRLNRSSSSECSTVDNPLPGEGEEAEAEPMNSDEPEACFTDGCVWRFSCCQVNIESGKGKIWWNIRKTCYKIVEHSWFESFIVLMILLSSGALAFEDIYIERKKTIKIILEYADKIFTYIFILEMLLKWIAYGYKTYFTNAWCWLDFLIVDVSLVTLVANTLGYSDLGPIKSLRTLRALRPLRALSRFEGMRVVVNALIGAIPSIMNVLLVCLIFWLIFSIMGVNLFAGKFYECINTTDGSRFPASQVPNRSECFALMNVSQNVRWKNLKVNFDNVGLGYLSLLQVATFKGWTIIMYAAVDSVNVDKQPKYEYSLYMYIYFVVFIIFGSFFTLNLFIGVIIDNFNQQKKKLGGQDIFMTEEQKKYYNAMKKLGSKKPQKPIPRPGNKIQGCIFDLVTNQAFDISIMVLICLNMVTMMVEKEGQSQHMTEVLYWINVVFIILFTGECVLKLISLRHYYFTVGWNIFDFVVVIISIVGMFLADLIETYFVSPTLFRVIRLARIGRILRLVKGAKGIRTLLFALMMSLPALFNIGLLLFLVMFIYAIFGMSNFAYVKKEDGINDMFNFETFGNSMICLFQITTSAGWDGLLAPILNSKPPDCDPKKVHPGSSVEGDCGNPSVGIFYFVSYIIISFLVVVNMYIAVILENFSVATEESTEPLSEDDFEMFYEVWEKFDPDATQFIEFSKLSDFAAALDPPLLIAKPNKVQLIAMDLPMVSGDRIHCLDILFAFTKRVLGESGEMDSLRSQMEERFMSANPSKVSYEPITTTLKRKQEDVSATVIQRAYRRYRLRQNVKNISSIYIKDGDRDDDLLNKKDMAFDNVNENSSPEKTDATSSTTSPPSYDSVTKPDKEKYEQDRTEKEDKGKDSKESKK

SMILES | IC50 [nM]
CC[C@H](C)[C@@H]1NC(=O)[C@@H]2CSSC[C@@H]3NC(=O)[C@H](C(C)C)NC(=O)[C@H](CC(C)C)NC(=O)[C@H](CC(N)=O)NC(=O)[C@@H]4CCCN4C(=O)[C@H](CCCNC(=N)N)NC(=O)[C@H](CSSC[C@H](NC(=O)[C@@H](N)CC(=O)O)C(=O)N[C@@H](CC(C)C)C(=O)NCC(=O)N[C@@H](Cc4ccc(-c5ccccc5)cc4)C(=O)N[C@@H](CCSC)C(=O)N[C@@H](CCCNC(=N)N)C(=O)N[C@@H](CCCCN)C(=O)N2)NC(=O)[C@H](CSSC[C@@H](C(=O)N[C@@H](CCCCN)C(=O)N[C@@H](Cc2ccc(O)cc2)C(=O)N[C@H](C(=O)N[C@@H](Cc2ccccc2)C(N)=O)C(C)C)NC(=O)[C@H](Cc2c[nH]c4ccccc24)NC(=O)[C@H](CCCCN)NC(=O)[C@H](Cc2cnc[nH]2)NC(=O)[C@H]([C@@H](C)O)NC(=O)[C@H](CCCNC(=N)N)NC(=O)[C@H](CO)NC3=O)NC(=O)[C@H](CCCCN)NC(=O)[C@H](CC(=O)O)NC(=O)[C@H](CC(N)=O)NC(=O)[C@H](CC(=O)O)NC(=O)[C@@H]2CCCN2C1=O | 86
CC[C@H](C)[C@@H]1NC(=O)[C@@H]2CSSC[C@@H]3NC(=O)[C@H](C(C)C)NC(=O)[C@H](CC(C)C)NC(=O)[C@H](CC(N)=O)NC(=O)[C@@H]4CCCN4C(=O)[C@H](CCCNC(=N)N)NC(=O)[C@H](CSSC[C@H](NC(=O)[C@@H](N)CC(=O)O)C(=O)N[C@@H](CC(C)C)C(=O)NCC(=O)N[C@@H](Cc4ccccc4)C(=O)N[C@@H](CCSC)C(=O)N[C@@H](CCCNC(=N)N)C(=O)N[C@@H](CCCCN)C(=O)N2)NC(=O)[C@H](CSSC[C@@H](C(=O)N[C@@H](CCCCN)C(=O)N[C@@H](Cc2ccc(O)cc2)C(=O)N[C@H](C(=O)N[C@@H](Cc2ccccc2)C(N)=O)C(C)C)NC(=O)[C@H](Cc2c[nH]c4ccccc24)NC(=O)[C@H](CCCCN)NC(=O)[C@H](Cc2cnc[nH]2)NC(=O)[C@H](Cc2cnc[nH]2)NC(=O)[C@H](CCCNC(=N)N)NC(=O)[C@H](CO)NC3=O)NC(=O)[C@H](CCCCN)NC(=O)[C@H](CC(=O)O)NC(=O)[C@H](CC(N)=O)NC(=O)[C@H](CC(=O)O)NC(=O)[C@@H]2CCCN2C1=O (H-DCLGFMRKCIPDNDKCCRPNLVCSRHHKWCKYVF-NH2; disulfide 2-17, 9-23, 16-30) | 4
CC[C@H](C)[C@@H]1NC(=O)[C@@H]2CSSC[C@@H]3NC(=O)[C@H](C(C)C)NC(=O)[C@H](CC(C)C)NC(=O)[C@H](CC(N)=O)NC(=O)[C@@H]4CCCN4C(=O)[C@H](CCCNC(=N)N)NC(=O)[C@H](CSSC[C@H](NC(=O)[C@@H](N)CC(=O)O)C(=O)N[C@@H](CC(C)C)C(=O)NCC(=O)N[C@@H](Cc4ccccc4)C(=O)N[C@@H](CCSC)C(=O)N[C@@H](CCCNC(=N)N)C(=O)N[C@@H](CCCCN)C(=O)N2)NC(=O)[C@H](CSSC[C@@H](C(=O)N[C@@H](CCCCN)C(=O)N[C@@H](Cc2ccc(O)cc2)C(=O)N[C@H](C(=O)N[C@@H](Cc2ccccc2)C(N)=O)C(C)C)NC(=O)[C@H](Cc2c[nH]c4ccccc24)NC(=O)[C@H](CCCNC(=N)N)NC(=O)[C@H](Cc2cnc[nH]2)NC(=O)[C@H]([C@@H](C)O)NC(=O)[C@H](CCCNC(=N)N)NC(=O)[C@H](CO)NC3=O)NC(=O)[C@H](CCCCN)NC(=O)[C@H](CC(=O)O)NC(=O)[C@H](CC(N)=O)NC(=O)[C@H](CC(=O)O)NC(=O)[C@@H]2CCCN2C1=O | 8

Target: Sodium channel protein type 5 subunit alpha (Homo sapiens, UniProt Q14524)
Sequence (Q14524 whole entry): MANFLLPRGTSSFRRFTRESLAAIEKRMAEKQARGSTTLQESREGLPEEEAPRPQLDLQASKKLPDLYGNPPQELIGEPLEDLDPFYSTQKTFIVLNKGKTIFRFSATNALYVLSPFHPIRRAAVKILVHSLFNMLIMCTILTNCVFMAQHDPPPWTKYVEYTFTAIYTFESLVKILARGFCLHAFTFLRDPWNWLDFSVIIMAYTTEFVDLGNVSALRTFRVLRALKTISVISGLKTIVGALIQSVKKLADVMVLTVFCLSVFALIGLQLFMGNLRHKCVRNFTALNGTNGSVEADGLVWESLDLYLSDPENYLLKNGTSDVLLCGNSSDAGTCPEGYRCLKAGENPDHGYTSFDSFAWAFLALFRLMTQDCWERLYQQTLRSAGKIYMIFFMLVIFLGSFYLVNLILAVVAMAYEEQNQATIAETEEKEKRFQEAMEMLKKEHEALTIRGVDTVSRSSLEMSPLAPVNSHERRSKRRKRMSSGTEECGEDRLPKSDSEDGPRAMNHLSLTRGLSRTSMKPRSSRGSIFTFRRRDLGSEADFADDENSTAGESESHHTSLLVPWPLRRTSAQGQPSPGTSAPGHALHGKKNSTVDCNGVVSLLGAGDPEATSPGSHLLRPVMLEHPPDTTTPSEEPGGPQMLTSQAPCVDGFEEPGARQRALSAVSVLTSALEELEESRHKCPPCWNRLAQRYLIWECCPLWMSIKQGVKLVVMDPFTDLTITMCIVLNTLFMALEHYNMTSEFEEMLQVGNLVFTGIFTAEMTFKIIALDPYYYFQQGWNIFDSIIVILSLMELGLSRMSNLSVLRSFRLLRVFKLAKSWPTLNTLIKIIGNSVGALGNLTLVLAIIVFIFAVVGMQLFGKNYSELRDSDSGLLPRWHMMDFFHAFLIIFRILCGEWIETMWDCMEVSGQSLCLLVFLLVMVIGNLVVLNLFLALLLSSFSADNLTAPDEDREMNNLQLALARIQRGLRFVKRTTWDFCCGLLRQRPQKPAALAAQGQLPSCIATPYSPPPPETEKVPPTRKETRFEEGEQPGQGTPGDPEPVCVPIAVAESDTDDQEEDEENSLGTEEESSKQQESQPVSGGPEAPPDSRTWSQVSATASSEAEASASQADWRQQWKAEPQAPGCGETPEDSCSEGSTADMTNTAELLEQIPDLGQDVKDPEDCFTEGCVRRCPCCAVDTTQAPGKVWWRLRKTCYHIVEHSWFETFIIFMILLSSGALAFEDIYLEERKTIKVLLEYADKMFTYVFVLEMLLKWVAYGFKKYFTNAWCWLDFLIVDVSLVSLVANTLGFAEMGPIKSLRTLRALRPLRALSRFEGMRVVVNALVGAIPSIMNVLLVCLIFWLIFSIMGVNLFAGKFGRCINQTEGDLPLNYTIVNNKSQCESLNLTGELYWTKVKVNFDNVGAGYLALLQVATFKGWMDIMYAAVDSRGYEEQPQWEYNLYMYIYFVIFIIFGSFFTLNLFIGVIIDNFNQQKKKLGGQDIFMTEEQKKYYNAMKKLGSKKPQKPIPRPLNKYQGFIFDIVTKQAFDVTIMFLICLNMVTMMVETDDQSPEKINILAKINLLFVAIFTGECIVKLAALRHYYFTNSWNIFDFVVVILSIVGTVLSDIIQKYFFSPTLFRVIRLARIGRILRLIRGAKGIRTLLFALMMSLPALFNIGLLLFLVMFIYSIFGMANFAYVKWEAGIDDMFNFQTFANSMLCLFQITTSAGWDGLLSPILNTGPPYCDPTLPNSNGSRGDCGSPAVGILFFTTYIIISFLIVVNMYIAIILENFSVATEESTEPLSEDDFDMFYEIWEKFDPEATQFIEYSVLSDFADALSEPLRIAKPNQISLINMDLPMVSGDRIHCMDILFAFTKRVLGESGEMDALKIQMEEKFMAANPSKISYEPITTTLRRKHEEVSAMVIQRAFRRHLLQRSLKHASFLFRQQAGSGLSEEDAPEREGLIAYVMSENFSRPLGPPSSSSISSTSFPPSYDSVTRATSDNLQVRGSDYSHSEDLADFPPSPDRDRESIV
Experiment: Inhibition of human NaV1.5 at -140 mV holding potential by whole-cell patch clamp assay

SMILES | IC50 [nM]
CC[C@H](C)[C@@H]1NC(=O)[C@@H]2CSSC[C@@H]3NC(=O)[C@H](C(C)C)NC(=O)[C@H](CC(C)C)NC(=O)[C@H](CC(N)=O)NC(=O)[C@@H]4CCCN4C(=O)[C@H](CCCNC(=N)N)NC(=O)[C@H](CSSC[C@H](NC(=O)[C@@H](N)CC(=O)O)C(=O)N[C@@H](CC(C)C)C(=O)NCC(=O)N[C@@H](Cc4ccccc4)C(=O)N[C@@H](CCSC)C(=O)N[C@@H](C)C(=O)N[C@@H](CCCCN)C(=O)N2)NC(=O)[C@H](CSSC[C@@H](C(=O)N[C@@H](CCCCN)C(=O)N[C@@H](Cc2ccc(O)cc2)C(=O)N[C@H](C(=O)N[C@@H](Cc2ccccc2)C(N)=O)C(C)C)NC(=O)[C@H](Cc2c[nH]c4ccccc24)NC(=O)[C@H](CCCCN)NC(=O)[C@H](Cc2cnc[nH]2)NC(=O)[C@H]([C@@H](C)O)NC(=O)[C@H](CCCNC(=N)N)NC(=O)[C@H](CO)NC3=O)NC(=O)[C@H](CCCCN)NC(=O)[C@H](CC(=O)O)NC(=O)[C@H](CC(N)=O)NC(=O)[C@H](CC(=O)O)NC(=O)[C@@H]2CCCN2C1=O (H-DCLGFMAKCIPDNDKCCRPNLVCSRTHKWCKYVF-NH2; disulfide 2-17, 9-23, 16-30) | > 5000
CC[C@H](C)[C@@H]1NC(=O)[C@@H]2CSSC[C@@H]3NC(=O)[C@H](C(C)C)NC(=O)[C@H](CC(C)C)NC(=O)[C@H](CC(N)=O)NC(=O)[C@@H]4CCCN4C(=O)[C@H](CCCNC(=N)N)NC(=O)[C@H](CSSC[C@H](NC(=O)[C@@H](N)CC(=O)O)C(=O)N[C@@H](CC(C)C)C(=O)NCC(=O)N[C@@H](Cc4ccccc4)C(=O)N[C@@H](CCSC)C(=O)N[C@@H](CCCNC(=N)N)C(=O)N[C@@H](CCCCN)C(=O)N2)NC(=O)[C@H](CSSC[C@@H](C(=O)N[C@@H](CCCCN)C(=O)N[C@@H](Cc2ccc(O)cc2)C(=O)N[C@H](C(=O)N[C@@H](Cc2ccccc2)C(N)=O)C(C)C)NC(=O)[C@H](Cc2c[nH]c4ccccc24)NC(=O)[C@H](CCCCN)NC(=O)[C@H](Cc2cnc[nH]2)NC(=O)[C@H]([C@@H](C)O)NC(=O)[C@H](CCCNC(=N)N)NC(=O)[C@H](CO)NC3=O)NC(=O)[C@H](CCCCN)NC(=O)[C@H](CC(=O)O)NC(=O)[C@H](CC(N)=O)NC(=O)[C@H](C)NC(=O)[C@@H]2CCCN2C1=O (H-DCLGFMRKCIPANDKCCRPNLVCSRTHKWCKYVF-NH2; disulfide 2-17, 9-23, 16-30) | > 5000
CC[C@H](C)[C@@H]1NC(=O)[C@@H]2CSSC[C@@H]3NC(=O)[C@H](C(C)C)NC(=O)[C@H](CC(C)C)NC(=O)[C@H](CC(N)=O)NC(=O)[C@@H]4CCCN4C(=O)[C@H](CCCNC(=N)N)NC(=O)[C@H](CSSC[C@H](NC(=O)[C@@H](N)CC(=O)O)C(=O)N[C@@H](CC(C)C)C(=O)NCC(=O)N[C@@H](Cc4ccccc4)C(=O)N[C@@H](CCSC)C(=O)N[C@@H](CCCNC(=N)N)C(=O)N[C@@H](CCCCN)C(=O)N2)NC(=O)[C@H](CSSC[C@@H](C(=O)N[C@@H](CCCCN)C(=O)N[C@@H](Cc2ccc(O)cc2)C(=O)N[C@H](C(=O)N[C@@H](Cc2ccccc2)C(=O)N[C@@H](C)C(N)=O)C(C)C)NC(=O)[C@H](Cc2c[nH]c4ccccc24)NC(=O)[C@H](CCCCN)NC(=O)[C@H](Cc2cnc[nH]2)NC(=O)[C@H]([C@@H](C)O)NC(=O)[C@H](CCCNC(=N)N)NC(=O)[C@H](CO)NC3=O)NC(=O)[C@H](CCCCN)NC(=O)[C@H](CC(=O)O)NC(=O)[C@H](CC(N)=O)NC(=O)[C@H](CC(=O)O)NC(=O)[C@@H]2CCCN2C1=O | > 5000
CSCC[C@@H]1NC(=O)[C@H](Cc2ccccc2)NC(=O)CNC(=O)[C@H](CC(C)C)NC(=O)[C@@H](NC(=O)[C@@H](N)CC(=O)O)CSSC[C@@H]2NC(=O)[C@@H]3CSSC[C@@H](C(=O)N[C@@H](CCCCN)C(=O)N[C@@H](Cc4ccc(O)cc4)C(=O)N[C@H](C(=O)N[C@@H](Cc4ccccc4)C(N)=O)C(C)C)NC(=O)[C@H](Cc4c[nH]c5ccccc45)NC(=O)[C@H](CCCCN)NC(=O)[C@H](Cc4cnc[nH]4)NC(=O)[C@H]([C@@H](C)O)NC(=O)[C@H](CCCNC(=N)N)NC(=O)[C@H](CO)NC(=O)[C@H](CSSC[C@H](NC(=O)[C@H](CCCCN)NC(=O)[C@H](CCCNC(=N)N)NC1=O)C(=O)N[C@@H](C)C(=O)N1CCC[C@H]1C(=O)N[C@@H](CC(=O)O)C(=O)N[C@@H](CC(N)=O)C(=O)N[C@@H](CC(=O)O)C(=O)N[C@@H](CCCCN)C(=O)N3)NC(=O)[C@H](C(C)C)NC(=O)[C@H](CC(C)C)NC(=O)[C@H](CC(N)=O)NC(=O)[C@@H]1CCCN1C(=O)[C@H](CCCNC(=N)N)NC2=O (H-DCLGFMRKCAPDNDKCCRPNLVCSRTHKWCKYVF-NH2; disulfide 2-17, 9-23, 16-30) | > 5000
CC[C@H](C)[C@@H]1NC(=O)[C@@H]2CSSC[C@@H]3NC(=O)[C@H](C(C)C)NC(=O)[C@H](CC(C)C)NC(=O)[C@H](CC(N)=O)NC(=O)[C@@H]4CCCN4C(=O)[C@H](CCCNC(=N)N)NC(=O)[C@H](CSSC[C@H](NC(=O)[C@H](C)N)C(=O)N[C@@H](CC(C)C)C(=O)NCC(=O)N[C@@H](Cc4ccccc4)C(=O)N[C@@H](CCSC)C(=O)N[C@@H](CCCNC(=N)N)C(=O)N[C@@H](CCCCN)C(=O)N2)NC(=O)[C@H](CSSC[C@@H](C(=O)N[C@@H](CCCCN)C(=O)N[C@@H](Cc2ccc(O)cc2)C(=O)N[C@H](C(=O)N[C@@H](Cc2ccccc2)C(N)=O)C(C)C)NC(=O)[C@H](Cc2c[nH]c4ccccc24)NC(=O)[C@H](CCCCN)NC(=O)[C@H](Cc2cnc[nH]2)NC(=O)[C@H]([C@@H](C)O)NC(=O)[C@H](CCCNC(=N)N)NC(=O)[C@H](CO)NC3=O)NC(=O)[C@H](CCCCN)NC(=O)[C@H](CC(=O)O)NC(=O)[C@H](CC(N)=O)NC(=O)[C@H](CC(=O)O)NC(=O)[C@@H]2CCCN2C1=O (H-ACLGFMRKCIPDNDKCCRPNLVCSRTHKWCKYVF-NH2; disulfide 2-17, 9-23, 16-30) | > 5000
CC[C@H](C)[C@@H]1NC(=O)[C@@H]2CSSC[C@@H]3NC(=O)[C@H](C)NC(=O)[C@H](CC(C)C)NC(=O)[C@H](CC(N)=O)NC(=O)[C@@H]4CCCN4C(=O)[C@H](CCCNC(=N)N)NC(=O)[C@H](CSSC[C@H](NC(=O)[C@@H](N)CC(=O)O)C(=O)N[C@@H](CC(C)C)C(=O)NCC(=O)N[C@@H](Cc4ccccc4)C(=O)N[C@@H](CCSC)C(=O)N[C@@H](CCCNC(=N)N)C(=O)N[C@@H](CCCCN)C(=O)N2)NC(=O)[C@H](CSSC[C@@H](C(=O)N[C@@H](CCCCN)C(=O)N[C@@H](Cc2ccc(O)cc2)C(=O)N[C@H](C(=O)N[C@@H](Cc2ccccc2)C(N)=O)C(C)C)NC(=O)[C@H](Cc2c[nH]c4ccccc24)NC(=O)[C@H](CCCCN)NC(=O)[C@H](Cc2cnc[nH]2)NC(=O)[C@H]([C@@H](C)O)NC(=O)[C@H](CCCNC(=N)N)NC(=O)[C@H](CO)NC3=O)NC(=O)[C@H](CCCCN)NC(=O)[C@H](CC(=O)O)NC(=O)[C@H](CC(N)=O)NC(=O)[C@H](CC(=O)O)NC(=O)[C@@H]2CCCN2C1=O (H-DCLGFMRKCIPDNDKCCRPNLACSRTHKWCKYVF-NH2; disulfide 2-17, 9-23, 16-30) | > 5000
